Measurements as given in patent US5079243A, “Benzazepines” (Novo Nordisk A/S, priority 1989, dated 1992).

Test system: stereotyped gnawing behaviour in mice induced by methylphenidate
Assay: methylphenidate induced gnawing test in mice
Type: in vivo
Conditions: Mus musculus

Row | SMILES | ED50 [mg/kg]
1 | COCOc1cc2c(cc1Cl)CCN(C)CC2c1cccc2ccoc12 (single isomer, unassigned; (+)) [Example 1, (+)-5-(7-benzofuranyl)-8-chloro-7-methoxymethyloxy-3-methyl-2,3,4,5-tetrahydro-1H-3-benzazepine] | 2
2 | COCOc1cc2c(cc1Cl)CCN(C)CC2c1cccc2c1OCC2 (single isomer, unassigned; (+)) [Example 2, (+)-8-chloro-5-(2,3-dihydro-benzofuran-7-yl)-7-methoxy-methyloxy-3-methyl-2,3,4,5-tetrahydro-1H-3-benzazepine] | 5.4
